Assay results taken from patent publication US20200323962A1, “LIPOPHILIC PEPTIDE PRODRUGS” (YISSUM RESEARCH DEVELOPMENT COMPANY OF THE HEBREW …, priority 2017, published 2020).
Like-named read-outs stand apart in the source and are kept apart here. Marks after values point to notes of the source that are not given here. Each block holds one compound with its values, some of them ahead of it. *1 amine or outer side, *2 acyl side, *3 side chain or, on linkers, in order; H or OH if unused. Bridges are numbered along the chain shown (N, C = ends). Where no end group is shown, it is not given here. [ ]: non-standard residue; d: D form. Phe(Nα-(CH2)3CO) = O=C([C@H](Cc1ccccc1)N(CCCC(=O)[*:3])[*:1])[*:2]; N(2-aminoethyl)Phe = O=C([C@H](Cc1ccccc1)N(CCN[*:3])[*:1])[*:2]

What was measured:
[1] = PAMPA, pH 7.4
Caco-2 cells [2] = experiment: Caco-2 permeability study (Examples 1-4); details: for Caco-2 permeability: qualitative; for Papp AB / Papp BA: Table 3, n = 3
human αvβ5-integrin = biological target: T1, human αvβ5-integrin (Homo sapiens, UniProt P06756+P18084); experiment: Integrin binding assay (solid-phase), αvβ5
T1 construct: purchased Millipore

human α5β1-integrin = human α5β1-integrin (Homo sapiens, UniProt P05556+P08648, DEL729-798); experiment: biochemical
Chain of human α5β1-integrin (P08648 42-995 limits assumed, stated change not applied): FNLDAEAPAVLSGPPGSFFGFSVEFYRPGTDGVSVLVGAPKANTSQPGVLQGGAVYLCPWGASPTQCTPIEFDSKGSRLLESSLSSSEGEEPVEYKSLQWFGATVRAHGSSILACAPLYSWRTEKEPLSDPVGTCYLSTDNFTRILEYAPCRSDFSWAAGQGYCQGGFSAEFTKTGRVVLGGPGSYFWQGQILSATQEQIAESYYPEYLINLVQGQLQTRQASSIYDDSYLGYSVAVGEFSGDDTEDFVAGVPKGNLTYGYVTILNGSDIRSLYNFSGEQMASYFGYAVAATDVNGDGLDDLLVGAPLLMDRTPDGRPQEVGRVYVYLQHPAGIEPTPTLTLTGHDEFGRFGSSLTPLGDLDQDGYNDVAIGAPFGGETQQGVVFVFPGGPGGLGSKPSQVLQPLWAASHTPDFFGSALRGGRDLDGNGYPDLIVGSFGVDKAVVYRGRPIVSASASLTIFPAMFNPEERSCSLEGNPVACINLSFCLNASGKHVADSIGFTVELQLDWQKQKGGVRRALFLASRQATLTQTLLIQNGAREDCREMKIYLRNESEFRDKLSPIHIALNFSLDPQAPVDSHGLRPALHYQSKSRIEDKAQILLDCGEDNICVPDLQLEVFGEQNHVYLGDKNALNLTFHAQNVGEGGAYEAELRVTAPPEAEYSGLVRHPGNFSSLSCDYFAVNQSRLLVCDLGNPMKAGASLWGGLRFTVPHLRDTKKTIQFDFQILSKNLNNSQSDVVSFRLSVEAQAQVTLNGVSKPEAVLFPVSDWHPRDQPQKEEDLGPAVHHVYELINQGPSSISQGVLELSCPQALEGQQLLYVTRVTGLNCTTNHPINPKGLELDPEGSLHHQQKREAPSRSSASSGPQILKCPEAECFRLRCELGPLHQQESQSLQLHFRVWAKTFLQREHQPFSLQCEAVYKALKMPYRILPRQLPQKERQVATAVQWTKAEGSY
Chain of human α5β1-integrin (P05556 21-728 limits assumed, stated change not applied): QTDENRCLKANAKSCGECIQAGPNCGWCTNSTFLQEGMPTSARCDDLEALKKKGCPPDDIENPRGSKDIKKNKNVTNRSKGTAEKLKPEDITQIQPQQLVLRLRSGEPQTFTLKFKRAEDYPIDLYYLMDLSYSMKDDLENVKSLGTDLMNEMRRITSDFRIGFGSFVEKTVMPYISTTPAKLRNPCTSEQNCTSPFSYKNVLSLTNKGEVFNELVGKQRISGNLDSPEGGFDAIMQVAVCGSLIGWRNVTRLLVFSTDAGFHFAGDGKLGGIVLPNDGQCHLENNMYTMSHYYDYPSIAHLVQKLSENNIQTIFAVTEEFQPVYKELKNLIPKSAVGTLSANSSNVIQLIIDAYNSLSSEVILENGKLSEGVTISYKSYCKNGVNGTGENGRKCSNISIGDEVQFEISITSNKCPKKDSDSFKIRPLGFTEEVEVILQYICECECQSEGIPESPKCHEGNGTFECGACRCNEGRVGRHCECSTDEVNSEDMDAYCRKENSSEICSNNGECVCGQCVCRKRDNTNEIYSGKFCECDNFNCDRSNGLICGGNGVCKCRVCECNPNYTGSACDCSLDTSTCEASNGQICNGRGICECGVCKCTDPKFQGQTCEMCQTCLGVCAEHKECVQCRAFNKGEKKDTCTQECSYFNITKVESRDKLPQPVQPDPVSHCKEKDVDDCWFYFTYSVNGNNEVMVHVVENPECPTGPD

human αvβ6-Integrin = biological target: T2, human αvβ6-Integrin (Homo sapiens, UniProt P06756+P18564, DEL708-788); experiment: Integrin binding assay (solid-phase), αvβ6
T2 construct: purchased R&D
T2 sequence (P06756 31-992 limits assumed, stated change not applied): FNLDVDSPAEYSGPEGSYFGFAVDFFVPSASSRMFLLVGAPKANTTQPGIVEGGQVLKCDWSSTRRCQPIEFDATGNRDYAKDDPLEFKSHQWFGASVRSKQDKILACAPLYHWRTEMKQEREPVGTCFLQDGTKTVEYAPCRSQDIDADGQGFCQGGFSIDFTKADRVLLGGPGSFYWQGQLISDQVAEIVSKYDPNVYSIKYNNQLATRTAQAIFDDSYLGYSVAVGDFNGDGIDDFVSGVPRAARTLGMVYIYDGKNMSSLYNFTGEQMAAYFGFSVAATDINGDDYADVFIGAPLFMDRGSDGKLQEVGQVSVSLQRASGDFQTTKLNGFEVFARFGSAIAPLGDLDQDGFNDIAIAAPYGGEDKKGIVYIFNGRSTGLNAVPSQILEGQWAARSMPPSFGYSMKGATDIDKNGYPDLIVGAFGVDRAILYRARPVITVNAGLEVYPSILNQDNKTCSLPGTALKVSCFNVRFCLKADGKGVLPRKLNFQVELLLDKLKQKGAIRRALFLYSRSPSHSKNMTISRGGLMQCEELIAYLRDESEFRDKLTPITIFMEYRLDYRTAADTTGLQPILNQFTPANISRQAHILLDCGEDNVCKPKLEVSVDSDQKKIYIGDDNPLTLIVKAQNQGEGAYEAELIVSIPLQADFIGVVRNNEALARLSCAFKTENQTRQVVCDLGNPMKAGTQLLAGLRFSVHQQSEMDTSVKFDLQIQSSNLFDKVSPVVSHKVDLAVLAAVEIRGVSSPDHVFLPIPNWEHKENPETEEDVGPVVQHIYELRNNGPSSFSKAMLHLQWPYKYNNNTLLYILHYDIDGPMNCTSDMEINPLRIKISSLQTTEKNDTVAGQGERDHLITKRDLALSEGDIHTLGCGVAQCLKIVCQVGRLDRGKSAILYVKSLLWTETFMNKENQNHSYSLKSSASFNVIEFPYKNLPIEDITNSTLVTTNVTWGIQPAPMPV
T2 sequence (P18564 22-707 limits assumed, stated change not applied): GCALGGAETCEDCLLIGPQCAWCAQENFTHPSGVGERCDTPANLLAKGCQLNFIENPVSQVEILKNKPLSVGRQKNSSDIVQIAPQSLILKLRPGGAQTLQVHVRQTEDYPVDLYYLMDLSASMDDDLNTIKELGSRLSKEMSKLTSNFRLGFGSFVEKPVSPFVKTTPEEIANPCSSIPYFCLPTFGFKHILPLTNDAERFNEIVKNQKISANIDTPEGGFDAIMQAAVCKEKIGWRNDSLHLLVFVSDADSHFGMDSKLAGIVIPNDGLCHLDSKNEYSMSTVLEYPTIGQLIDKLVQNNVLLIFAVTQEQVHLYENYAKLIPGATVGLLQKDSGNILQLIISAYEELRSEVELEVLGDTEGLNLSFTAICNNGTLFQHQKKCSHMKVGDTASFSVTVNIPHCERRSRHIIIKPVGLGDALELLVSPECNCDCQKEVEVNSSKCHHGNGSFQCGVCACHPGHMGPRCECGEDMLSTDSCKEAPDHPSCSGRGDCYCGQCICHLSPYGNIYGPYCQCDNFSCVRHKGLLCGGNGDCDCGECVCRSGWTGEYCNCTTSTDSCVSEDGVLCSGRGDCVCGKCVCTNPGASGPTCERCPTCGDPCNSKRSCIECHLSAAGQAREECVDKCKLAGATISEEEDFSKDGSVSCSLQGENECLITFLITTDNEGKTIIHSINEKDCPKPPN

in vitro = details: human, Caco-2, Papp AB
[3] = Log D determination (octanol/PBS pH 7.4); details: pH 7.4, octanol/PBS
PAMPA-GIT permeability = details: pH 7.4, 4 hours
Caco-2 cells [4] = experiment: Caco-2 A-B and B-A permeability with/without verapamil (Example 6); details: 10 μM, 90 min, no verapamil
[5] = as above; details: human, Caco-2, pH 7.4
[6] = Caco-2 permeability study (Examples 1-4)
[7] = tested on: amylase and lipase release from the pancreas; details: bombesin- and caerulein-induced; cited from earlier work
somatostatin receptors = details: SSTR subtypes; cited from earlier work

Compound: C[C@@H]1NC(=O)[C@H](C)N(C)C(=O)[C@H](C)NC(=O)[C@H](CC(=O)O)N(C)C(=O)CNC(=O)[C@@H](CCCNC(=N)N)NC1=O [compound 17, c(rG*DA*AA)]
- Caco-2 permeability (Caco-2 cells [2]): significant lower permeability
- IC50 (human αvβ5-integrin): > 5 µM
- IC50 (human α5β1-integrin): > 10 µM
- IC50 (human αvβ6-Integrin): > 10000 nM

Compound: C[C@@H]1NC(=O)[C@H](CC(=O)O)NC(=O)CNC(=O)[C@@H](CCCNC(=N)N)NC(=O)[C@H](C)N(C)C(=O)[C@H](C)N(C)C1=O [compound 23, c(rGDA*A*A)]
- Papp AB (Caco-2 cells [2]): 0.61 ± 0.09 cm/s × 10^6
- Papp BA (Caco-2 cells [2]): 1.34 ± 0.03 cm/s × 10^6
- Caco-2 permeability (Caco-2 cells [2]): significant lower permeability

Compound: CC(C)[C@@H]1C(=O)N[C@@H](CCCNC(=N)N)C(=O)NCC(=O)N[C@@H](CC(=O)O)C(=O)N[C@@H](C)C(=O)N(C)[C@@H](C)C(=O)N1C [peptide 29, c(*vRGDA*A)]
- efflux ratio (Caco-2 cells [2]; Table 3): 2.14
- Papp AB (Caco-2 cells [2]): 0.07 ± 0.01 cm/s × 10^6
- Papp BA (Caco-2 cells [2]): 0.15 ± 0.01 cm/s × 10^6
- Caco-2 permeability (Caco-2 cells [2]): significant lower permeability
- logD ([3]; pH 7.4, LogD, pH 7.4 (mean in parentheses below reported bound)): -2.84
- LogD, pH 7.4 (mean / reported value) [3]: <−1
- Mass retention (PAMPA-GIT permeability): 15%
- Permeability, Mean (PAMPA-GIT permeability): <−7 Log10[10^−6 cm/s]
- Permeability, replicate 1 (PAMPA-GIT permeability): <−7 Log10[10^−6 cm/s]
- Permeability, replicate 2 (PAMPA-GIT permeability): <−7 Log10[10^−6 cm/s]
- Permeability, replicate 3 (PAMPA-GIT permeability): <−7 Log10[10^−6 cm/s]
- Papp (AB), Mean (Caco-2 cells [4]): 0.7 10^−6 cm/s
- Papp (AB), replicate 1 (Caco-2 cells [4]): 1.0 10^−6 cm/s
- Papp (AB), replicate 2 (Caco-2 cells [4]): 0.2 10^−6 cm/s
- Papp (AB), replicate 3 (Caco-2 cells [4]): 0.9 10^−6 cm/s
- Papp (BA), Mean (Caco-2 cells [4]): 0.3 10^−6 cm/s
- Papp (BA), replicate 1 (Caco-2 cells [4]): 0.3 10^−6 cm/s
- Papp (BA), replicate 2 (Caco-2 cells [4]): 0.4 10^−6 cm/s
- Papp (BA), replicate 3 (Caco-2 cells [4]): 0.2 10^−6 cm/s
- efflux ratio at 90 min, 10 µM [5]: 0.4

Compound: PTR-3046: backbone cyclic somatostatin analog (SEQ ID NO: 28) ([N(2-aminoethyl)Phe]Y[dW]KV[Phe(Nα-(CH2)3CO)]T-NH2; bridge 1-6; also: backbone cyclisation between building units)
- inhibition of amylase and lipase release [7]: inhibits bombesin- and caerulein-induced amylase and lipase release from the pancreas
- somatostatin receptor selectivity (somatostatin receptors): selective toward the SSTR5

Continued, values first:

- Mass retention ([1]; 4 h, 50 μM): 21%
- Permeability, Mean [1]: <−7* Log10[10^−6 cm/s]
- Permeability, replicate 1 [1]: <−7 Log10[10^−6 cm/s]
- Permeability, replicate 2 [1]: <−7 Log10[10^−6 cm/s]
- Permeability, replicate 3 [1]: <−7 Log10[10^−6 cm/s]
Compound: CNC(=C[N+](=O)[O-])NCCSCc1ccc(CN(C)C)o1 [Ranitidine, reference compound]

- IC50 (human αvβ6-Integrin; Table 1, read-out: αvβ6, IC50): 25 ± 3 nM
Compound: C[C@@H]1NC(=O)[C@H](CC(=O)O)NC(=O)CNC(=O)[C@@H](CCCNC(=N)N)N(C)C(=O)[C@H](Cc2ccccc2)NC(=O)[C@H](C)N(C)C1=O [compound 33, c(*rGDA*AF)]

- Papp A→B at 150 min (in vitro): 1.89 ± 0.11 ×10⁻⁶ cm/s
Compound: COCCc1ccc(OCC(O)CNC(C)C)cc1 (centres unmarked) [metoprolol]

- efflux ratio ([6]; Caco-2): 13
- Papp A→B ([6]; Caco-2, Caco-2 Papp A-to-B, A-to-B, text values (FIGS. 4, 5, 7, 17-20), unit inferred): 0.8 ×10⁻⁶ cm/s
- Papp B→A ([6]; Caco-2, Caco-2 Papp B-to-A, B-to-A, text values (FIGS. 5, 18, 20), unit inferred): 10.6 ×10⁻⁶ cm/s
- Papp A→B ([6]; Caco-2, Papp AB, Table 3, n = 3): 0.82 ± 0.13 ×10⁻⁶ cm/s
- Papp B→A ([6]; Caco-2, Papp BA, Table 3, n = 3): 10.7 ± 2.14 ×10⁻⁶ cm/s
Compound: CCCCCCOC(=O)N=C(NCCC[C@@H]1NC(=O)[C@@H](C(C)C)N(C)C(=O)[C@H](C)N(C)C(=O)[C@H](C)NC(=O)[C@H](CC(=O)OC)NC(=O)CNC1=O)NC(=O)OCCCCCC [peptide 29P, c(*vR(Hoc)2GD(OMe)A*A)]
